# Target: T1, human TPH1 (Homo sapiens, UniProt P17752)
# T1 sequence (P17752 1-444): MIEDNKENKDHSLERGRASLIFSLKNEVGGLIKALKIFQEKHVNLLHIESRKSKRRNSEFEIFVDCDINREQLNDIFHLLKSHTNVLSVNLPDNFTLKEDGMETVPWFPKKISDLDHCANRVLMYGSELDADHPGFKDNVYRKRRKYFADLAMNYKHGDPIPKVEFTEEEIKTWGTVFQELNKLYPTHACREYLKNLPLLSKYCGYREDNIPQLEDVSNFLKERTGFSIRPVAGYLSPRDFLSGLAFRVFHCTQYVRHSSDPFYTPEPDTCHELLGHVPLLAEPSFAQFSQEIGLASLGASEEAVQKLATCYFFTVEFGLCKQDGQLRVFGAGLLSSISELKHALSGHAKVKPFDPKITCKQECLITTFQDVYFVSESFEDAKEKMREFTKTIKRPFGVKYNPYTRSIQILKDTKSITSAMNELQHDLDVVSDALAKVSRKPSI
# Experiment: biochemical
# In short: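 Inhibition is derived from 5-hydroxy-L-tryptophan fluorescence (540 nm emission, 300 nm excitation) after perchloric acid stop, relative to DMSO vehicle. Recombinant full-length human enzyme (40-80 nM) reacts with 40 μM tryptophan plus 100 μM methyltetrahydropterin, pH 7.6 Tris/DTT/catalase, 15° C, 60 min.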
row,Compound,IC50 [nM]
1,"COc1ccc(C2c3c(nc4ccccn34)CCN2C(=O)COc2cccc3ccccc23)cc1OC (stereo not drawn) [Example 1.1.3, 1-(1-(3,4-dimethoxyphenyl)-3,4-dihydroimidazo[1,2-a:5,4-c′]dipyridin-2(1H)-yl)-2-(naphthalen-1-yloxy)ethan-1-one]",134
2,"COc1ccc(C2c3c(nc4ccccn34)CCN2C(=O)COc2ccc(Cl)cc2Cl)cc1OC (stereo not drawn) [Example 1.1.4, 2-(2,4-dichlorophenoxy)-1-(1-(3,4-dimethoxyphenyl)-3,4-dihydroimidazo[1,2-a:5,4-c′]dipyridin-2(1H)-yl)ethan-1-one]",69
3,"CC(C)c1noc(C2c3c(nc4cc(Cl)ccn34)CCN2C(=O)COc2ccc(N3CCOCC3)nc2Cl)n1 (stereo not drawn) [Example 2.6.1, 1-(7-chloro-1-(3-isopropyl-1,2,4-oxadiazol-5-yl)-3,4-dihydroimidazo[1,2-a:5,4-c′]dipyridin-2(1H)-yl)-2-((2-chloro-6-morpholinopyridin-3-yl)oxy)ethan-1-one]",225
4,COc1ccc(C2c3c(nc4cc(C(F)(F)F)ccn34)CCN2C(=O)COc2ccccc2C)cc1OC (stereo not drawn) [Example 3.1.5],153
5,"COc1ccc(C2c3c(nc4cc(C(F)(F)F)ccn34)CCN2C(=O)COc2ccc(CN3CCOCC3)nc2Cl)cc1OC (stereo not drawn) [Example 3.1.27, 2-((2-chloro-6-(morpholinomethyl)pyridin-3-yl)oxy)-1-(1-(3,4-dimethoxyphenyl)-7-(trifluoromethyl)-3,4-dihydroimidazo[1,2-a:5,4-c′]dipyridin-2(1H)-yl)ethan-1-one]",84
6,"CCc1ncccc1OCC(=O)N1CCc2nc3cc(C(F)(F)F)ccn3c2C1c1ccc(OC)c(OC)c1 (stereo not drawn) [Example 3.1.30, 1-(1-(3,4-dimethoxyphenyl)-7-(trifluoromethyl)-3,4-dihydroimidazo[1,2-a:5,4-c′]dipyridin-2(1H)-yl)-2-((2-ethylpyridin-3-yl)oxy)ethan-1-one]",36
7,"COc1ccc(C2c3c(nc4ccccn34)CCN2C(=O)COc2cc(C)ccc2C)cc1OC (stereo not drawn) [Example 1.1.1, 1-(1-(3,4-dimethoxyphenyl)-3,4-dihydroimidazo[1,2-a:5,4-c′]dipyridin-2(1H)-yl)-2-(2,5-dimethylphenoxy)ethan-1-one]",418
8,"O=C(COc1ccc(N2CCOCC2)nc1Cl)N1CCc2nc3ccccn3c2C1c1ccc(C2CC2)cc1F (stereo not drawn) [Example 1.5.2, 2-((2-chloro-6-morpholinopyridin-3-yl)oxy)-1-(1-(4-cyclopropyl-2-fluorophenyl)-3,4-dihydroimidazo[1,2-a:5,4-c′]dipyridin-2(1H)-yl)ethan-1-one]",6
9,"O=C(COc1ccc(N2CCOCC2)nc1Cl)N1CCc2nc3ccccn3c2C1c1ccc(Cl)nc1F (stereo not drawn) [Example 1.11.1, 1-(1-(6-chloro-2-fluoropyridin-3-yl)-3,4-dihydroimidazo[1,2-a:5,4-c′]dipyridin-2(1H)-yl)-2-((2-chloro-6-morpholinopyridin-3-yl)oxy)ethan-1-one]",7
10,"O=C(COc1ccc(N2CCOCC2)nc1Cl)N1CCc2nc3ccccn3c2C1c1nc(-c2ccccc2)no1 (stereo not drawn) [Example 1.8.1, 2-((2-chloro-6-morpholinopyridin-3-yl)oxy)-1-(1-(3-phenyl-1,2,4-oxadiazol-5-yl)-3,4-dihydroimidazo[1,2-a:5,4-c′]dipyridin-2(1H)-yl)ethan-1-one]",16
11,"CN(C)c1ccc(OCC(=O)N2CCc3nc4ccccn4c3C2c2ccc(Cl)cc2F)c(Cl)n1 (stereo not drawn) [Example 1.4.12, 1-(1-(4-chloro-2-fluorophenyl)-3,4-dihydroimidazo[1,2-a:5,4-c′]dipyridin-2(1H)-yl)-2-((2-chloro-6-(dimethylamino)pyridin-3-yl)oxy)ethan-1-one]",58
12,"CS(=O)(=O)Nc1ccc(OC2(C(=O)N3CCc4nc5ccccn5c4C3c3ccc(Cl)cc3F)CC2)c(Cl)n1 (stereo not drawn) [Example 1.4.16, N-(6-chloro-5-(1-(1-(4-chloro-2-fluorophenyl)-1,2,3,4-tetrahydroimidazo[1,2-a:5,4-c′]dipyridine-2-carbonyl)cyclopropoxy)pyridin-2-yl)methanesulfonamide]",488
13,"COc1ccc(C2c3c(nc4cc(Cl)ccn34)CCN2C(=O)COc2ccc3ccccc3c2)cc1O (stereo not drawn) [Example 2.8.1, 1-(7-chloro-1-(3-hydroxy-4-methoxyphenyl)-3,4-dihydroimidazo[1,2-a:5,4-c′]dipyridin-2(1H)-yl)-2-(naphthalen-2-yloxy)ethan-1-one]",219
14,COc1ccc(C2c3c(nc4cc(C(F)(F)F)ccn34)CCN2C(=O)COc2ccc(C(F)(F)F)cc2)cc1OC (stereo not drawn) [Example 3.1.8],132
15,"COc1ccc(C2c3c(nc4ccccn34)CCN2C(=O)COc2ccc3ccccc3c2Br)cc1OC (stereo not drawn) [Example 1.1.8, 2-((1-bromonaphthalen-2-yl)oxy)-1-(1-(3,4-dimethoxyphenyl)-3,4-dihydroimidazo[1,2-a:5,4-c′]dipyridin-2(1H)-yl)ethan-1-one]",9
16,"CC(C)(O)c1ccc(C2c3c(nc4ccccn34)CCN2C(=O)COc2ccc(NS(C)(=O)=O)nc2Cl)c(F)c1 (stereo not drawn) [Example 1.16.2, N-(6-chloro-5-(2-(1-(2-fluoro-4-(2-hydroxypropan-2-yl)phenyl)-3,4-dihydroimidazo[1,2-a:5,4-c′]dipyridin-2(1H)-yl)-2-oxoethoxy)pyridin-2-yl)methanesulfonamide]",546
17,"N#Cc1ccc(C2c3c(nc4ccccn34)CCN2C(=O)COc2ccc(C(=O)NC3CC3)nc2Cl)c(F)c1 (stereo not drawn) [Example 1.20.2, 6-chloro-5-(2-(1-(4-cyano-2-fluorophenyl)-3,4-dihydroimidazo[1,2-a:5,4-c′]dipyridin-2(1H)-yl)-2-oxoethoxy)-N-cyclopropylpicolinamide]",31

# Continued, values first:
row,IC50 [nM],Compound
1,7,"COc1ccc(C2c3c(nc4cc(C(F)(F)F)ccn34)CCN2C(=O)COc2ccc(CN3CCOCC3)cc2Cl)c(F)c1 (stereo not drawn) [Example 3.3.2, 2-(2-chloro-4-(morpholinomethyl)phenoxy)-1-(1-(2-fluoro-4-methoxyphenyl)-7-(trifluoromethyl)-3,4-dihydroimidazo[1,2-a:5,4-c′]dipyridin-2(1H)-yl)ethan-1-one]"
2,51,"CCOc1ccc(C2c3c(nc4cc(C(F)(F)F)ccn34)CCN2C(=O)COc2ccc(CN3CCOCC3)c(C)c2C)cc1 (stereo not drawn) [Example 3.25.3, 2-(2,3-dimethyl-4-(morpholinomethyl)phenoxy)-1-(1-(4-ethoxyphenyl)-7-(trifluoromethyl)-3,4-dihydroimidazo[1,2-a:5,4-c′]dipyridin-2(1H)-yl)ethan-1-one]"
3,32,"Cc1ccc(C2c3c(nc4cc(C(F)(F)F)ccn34)CCN2C(=O)COc2ccc(CN3CCOCC3)cc2Cl)cc1 (stereo not drawn) [Example 3.23.2, 2-(2-chloro-4-(morpholinomethyl)phenoxy)-1-(1-(p-tolyl)-7-(trifluoromethyl)-3,4-dihydroimidazo[1,2-a:5,4-c′]dipyridin-2(1H)-yl)ethan-1-one]"
4,9,"COc1cc(F)c(C2c3c(nc4cc(C(F)(F)F)ccn34)CCN2C(=O)COc2ccc3c(c2)CN(C(=O)OC(C)(C)C)CC3)cc1OC (stereo not drawn) [Example 3.18.3, tert-butyl 7-(2-(1-(2-fluoro-4,5-dimethoxyphenyl)-7-(trifluoromethyl)-3,4-dihydroimidazo[1,2-a:5,4-c′]dipyridin-2(1H)-yl)-2-oxoethoxy)-3,4-dihydroisoquinoline-2(1H)-carboxylate]"
5,44,"Cc1ccc(C2c3c(nc4cc(C(F)(F)F)ccn34)CCN2C(=O)COc2cccnc2Cl)c(F)c1 (stereo not drawn) [Example 3.22.2, 2-((2-chloropyridin-3-yl)oxy)-1-(1-(2-fluoro-4-methylphenyl)-7-(trifluoromethyl)-3,4-dihydroimidazo[1,2-a:5,4-c′]dipyridin-2(1H)-yl)ethan-1-one]"
6,89,"COc1ccc(C2c3c(nc4ccc(C)cn34)CCN2C(=O)COc2ccc(Cl)cc2Cl)cc1OC (stereo not drawn) [Example 7.1.1, 2-(2,4-dichlorophenoxy)-1-(1-(3,4-dimethoxyphenyl)-8-methyl-3,4-dihydroimidazo[1,2-a:5,4-c′]dipyridin-2(1H)-yl)ethan-1-one]"
7,318,"COc1cc(C2c3c(nc4cc(C(F)(F)F)ccn34)CCN2C(=O)COc2ccc3ccccc3c2)ccc1O (stereo not drawn) [Example 3.11.1, 1-(1-(4-hydroxy-3-methoxyphenyl)-7-(trifluoromethyl)-3,4-dihydroimidazo[1,2-a:5,4-c′]dipyridin-2(1H)-yl)-2-(naphthalen-2-yloxy)ethan-1-one]"
8,54,"O=C(COc1ccc(CN2CCOCC2)cc1Cl)N1CCc2nc3cc(C(F)(F)F)ccn3c2C1c1ccc(OC(F)F)cc1 (stereo not drawn) [Example 3.26.2, 2-(2-chloro-4-(morpholinomethyl)phenoxy)-1-(1-(4-(difluoromethoxy)phenyl)-7-(trifluoromethyl)-3,4-dihydroimidazo[1,2-a:5,4-c′]dipyridin-2(1H)-yl)ethan-1-one]"
9,328,"O=C(COc1ccc2ccccc2c1)N1CCc2nc3cc(C(F)(F)F)ccn3c2C1c1cnn(-c2ccccc2)c1 (stereo not drawn) [Example 3.41.1, 2-(naphthalen-2-yloxy)-1-(1-(1-phenyl-1H-pyrazol-4-yl)-7-(trifluoromethyl)-3,4-dihydroimidazo[1,2-a:5,4-c′]dipyridin-2(1H)-yl)ethan-1-one]"
10,87,"Cc1noc(C)c1C1c2c(nc3cc(C(F)(F)F)ccn23)CCN1C(=O)COc1ccc2ccccc2c1 (stereo not drawn) [Example 3.51.1, 1-(1-(3,5-dimethylisoxazol-4-yl)-7-(trifluoromethyl)-3,4-dihydroimidazo[1,2-a:5,4-c′]dipyridin-2(1H)-yl)-2-(naphthalen-2-yloxy)ethan-1-one]"

# From patent US20180155344A1, “TRICYCLIC PIPERIDINE COMPOUNDS” (ACTELION PHARMACEUTICALS LTD, priority 2015, published 2018)
